Consider two molecules from patent US11260129B2, “Phosphor-containing drug activator, suspension thereof, system containing the suspension, and methods for use” (IMMUNOLIGHT, LLC, priority 2016, dated 2022).

Test [1] has as its system 4T1-HER2 cells. The test is described as follows: Cell viability by Guava flow cytometry (FIG. 13A). The conditions noted are these: UVADEX alone, 1 Gy 80 kVp; p=0.97. In kind it is cell-based, murine. The protocol:
In-vitro studies were conducted on plated cells following standard procedures. Cells were maintained in RPMI-1640 supplemented with 10% fetal bovine serum and L-glutamine from GIBCO (Grand Island, N.Y.) growing in a humidified atmosphere of 5% CO2. After incubation, cells were trypsinized and plated evenly onto twelve 12-well plates for 24 hours. About 20 minutes prior to irradiation, the 12 wells of each plate were exposed to the following combinations of additives: […] Each plate had 12 wells with three wells for each of the four treatment arms. The plates were then irradiated with x-rays by placing the plate at a known distance from the x-ray source (50 cm). After irradiation, the cells were incubated on the plate for 48 hours prior to performing flow cytometry. For compatibility with 96-well Guava Nexin® assay, the remaining cells were again trypsinized. […] Two primary flow cytometry analyses were used, both determined at 48 hours after treatment. […] The first analysis evaluated was metabolic cell viability (herein referred to as cell viability) calculated from the number of whole cells per well as determined using forward scattering (ESC). […] In FIG. 13A, cell viability after treatment (10 μM 8-MOP equivalent dilution of UVADEX, 50 μg/mL phosphor, 1 Gy of 80 kVp radiation) as determined by Guava flow cytome cytometry is depicted. […]
A general note: In flow cytometry, cells or beads pass a laser one at a time.

Test [2] deals with 4T1-HER2 cells. Nature of the test: Annexin V positivity by flow cytometry (FIGS. 13B, 15, 16). In kind it is cell-based, murine. The conditions noted are these: UVADEX alone, with or without x-ray (p 0.90 and 0.09). Here is the method: In-vitro studies were conducted on plated cells following standard procedures. Cells were maintained in RPMI-1640 supplemented with 10% fetal bovine serum and L-glutamine from GIBCO (Grand Island, N.Y.) growing in a humidified atmosphere of 5% CO2. After incubation, cells were trypsinized and plated evenly onto twelve 12-well plates for 24 hours. About 20 minutes prior to irradiation, the 12 wells of each plate were exposed to the following combinations of additives: […] Each plate had 12 wells with three wells for each of the four treatment arms. The plates were then irradiated with x-rays by placing the plate at a known distance from the x-ray source (50 cm). After irradiation, the cells were incubated on the plate for 48 hours prior to performing flow cytometry. […] (after the 48 hour incubation) and plated onto the 96-well plate, Two primary flow cytometry analyses were used, both determined at 48 hours after treatment. […] The first analysis evaluated was metabolic cell viability (herein referred to as cell viability) calculated from the number of whole cells per well as determined using forward scattering (ESC). […] In FIG. 13A, cell viability after treatment (10 μM 8-MOP equivalent dilution of UVADEX, 50 μg/mL phosphor, 1 Gy of 80 kVp radiation) as determined by Guava flow cytome cytometry is depicted. […]

Test [3] relates to 4T1-HER2 cells. The test is described as follows: Methylene blue staining for cell viability. The conditions noted are these: individual components, 1 Gy of 80 kVp x-rays. It counts as cell-based, murine.
Description: A plate having six (6) wells is subjected to treatment. FIG. 11 is a photographic depiction showing of Methylene Blue stain for cell viability post treatment with X-ray, phosphors and UVADEX. One well (#1) is the control. One well (#2) has phosphor coated with EC and DLC (H100). One well (#3) has phosphor coated with EC (but no DLC).
FIGS. 13A-13D illustrates the efficacy of treatment in-vitro in 4T1-HER2 cells, utilizing a regimen of 1/10-diluted UVADEX (with equivalent of 10 uM 8-MOP), 50 μg/mL phosphor 1 Gy of 80 kVp x-rays. […] Two results from two separate plates are shown, each with identical preparations to investigate reproducibility. Three concentrations of phosphor (25, 50, & 100 μg/mL) were tested with the UVADEX concentration fixed at 1/10 dilution (10 uM 8-MOP). […] In FIGS. 13A-13D, the anti-tumor effects of the treatment and its individual components on 4T1-HER2 cells. […] In FIGS. 13C and 13D, cell viability illustrated by methyl blue staining for identical plates each receiving 1 Gy of 80 kVp x-rays is depicted. […]
The test system of test [4] is CT2A (murine malignant glioma). The test is described as follows: Cell-Titer-Glo Luminescence Cell Viability Assay, UV activated psoralen (FIG. 14A). The conditions noted are these: psoralen 40 μM; UV light 0, 0.25, 0.5, 1.0 J/cm2; N=4. In kind it is cell-based. The source says:
(§1) Other assays were used to provide independent complimentary information on cell viability, e.g. Methylene blue staining and ATP-induced Luminescence imaging (Cell-Titer-Glo® Luminescence Cell Viability Assay). The luminescence imaging permitted investigation of the cytotoxicity of psoralen activated directly with a UV lamp, and in the absence of phosphors and x-ray radiation.
(§2) FIG. 14B presents data on CT2A malignant glioma cells, for a range of treatment parameters including variable x-ray dose (0, 0.67 and 1 Gy). phosphor concentration (50 or 100 μg) and psoralen concentration (8-MOP) at 10, 20 and 40 μM respectively. […] N=4 for each cell line at each UV light condition (0, 0.25, 0.5, 1.0 J/cm2). The psoralen concentration was 40 μM. For FIG. 14B, in CT2A cells, the treatment cytotoxicity increases with X-ray dose (0, 0.67 and 1.00 Gy respectively), concentration of 8-MOP psoralen (10, 20 and 40 μM respectively), and phosphor (50 and 100 μg/ml) respectively (p values shown thereon).

The subject of a further test is KP-B (sarcoma). Described as above. The conditions noted are these: psoralen 40 μM; UV light 0, 0.25, 0.5, 1.0 J/cm2; N=4. In kind it is cell-based, murine.
Description: as §1, §2

The test system of a further test is 4T1. Described as above. To be noted: psoralen 40 μM; UV light 0, 0.25, 0.5, 1.0 J/cm2; N=4. In kind it is cell-based, murine.
Description: as §1, §2

Consider `COc1c2occc2cc2ccc(=O)oc12` [UVADEX, 8-methoxypsoralen], for which the “effect of addition of radiation on cell viability” value with 4T1-HER2 cells [1] is “no significant effect”. Besides, the “apoptotic activity (Annexin V)” value in the test with 4T1-HER2 cells [2] is recorded as “negligible apoptotic activity”. Also, the “effect in methyl blue staining (FIGS. 13C, 13D)” value in the test with 4T1-HER2 cells [3] is given as “little effect”.
As for `O=c1ccc2cc3ccoc3cc2o1` [psoralen], the viable cells entry (in test [4]; with KP-B (sarcoma); in the test with 4T1) was “reduce viable cells” throughout.
